What all share (type): cell-based
In one assay the test system is DU145. The assay can be described thus: In vitro proliferation assay (CellTiter-Glo), DU145. The following applies: Homo sapiens, DU-145; DU145 cells; cultured 72 to 144 hours; CellTiter-Glo cell viability. As to the method:
A panel of human cancer cell lines (DU 145, NCI-N87, and MDA-MB-361) obtained from the American Type Tissue Collection (ATCC) (P.O. Box 1549, Manassa, Va. 20108 (USA)) were used to determine the relative cytotoxicity of tubulysin compounds of the invention. The cells were plated in culture media at a density of 2,000 to 5,000 per well of tissue-culture-treated 96-well plates in a volume of 80 μl and allowed to adhere overnight. A 5× concentration of each compound tested was prepared by diluting the test articles in culture medium. Twenty microliters of each test article was added to cells in duplicate or triplicate such that the final dose curve ranged from 4 μg/ml down to 61 pg/ml in a stepwise 1:4 serial dilution series. The treated cells were cultured at 37° C./5% CO2 for 72 to 144 hours. The CellTiter-Glo Luminescent Viability Assay from Promega was used to determine relative cytotoxicity. Briefly, 100 μl of CellTiter-Glo reagent was added to each well, allowed to incubate for 10 minutes at room temperature with mild shaking and then the […] was read using a Perkin Elmer EnVision luminometer. The percent cell viability was calculated by the following formula: (average luminescence of treated samples/average luminescence of control (untreated) samples)×100. IC50 values were determined using logistic non-linear regression analysis with GraphPad Prism software. Not all compounds were assayed against all cell lines.

For the next assay, the system named is HCT116. The assay can be described thus: In vitro proliferation assay (CellTiter-Glo), HCT116. The following applies: Homo sapiens, HCT-116; HCT116 cells; cultured 72 to 144 hours; CellTiter-Glo cell viability. A general note: Cellular ATP, detected with luciferase, serves as a proxy for viable cell number.
In a further assay the test system is MB231. The assay can be described thus: In vitro proliferation assay (CellTiter-Glo), MB231. As to conditions: Homo sapiens; MB231 cells; cultured 72 to 144 hours; CellTiter-Glo cell viability.

As for `CC[C@H](C)[C@H](NC(=O)[C@H]1C[C@H](C)CCN1C)C(=O)N(CC)[C@H](C[C@@H](OC(C)=O)c1nc(C(=O)N[C@@H](Cc2ccc(N)cc2)C[C@H](C)C(=O)O)cs1)C(C)C` [Compound 1, (2S,4R)-4-(2-((1R,3R)-1-acetoxy-3-((2S,3S)-2-((2R,4R)-1,4-dimethylpiperidine-2-carboxamido)-N-ethyl-3-methylpentanamido)-4-methylpentyl)thiazole-4-carboxamido)-5-(4-aminophenyl)-2-methylpentanoic acid], the figures for the IC50 in the assay with DU145, in the assay on HCT116 and in the assay with MB231 were 0.2 nM, 0.6 nM and 2.5 nM, respectively.

As for `CC[C@H](C)[C@H](NC(=O)C1(CC)CCCCN1C)C(=O)N(CC)[C@H](C[C@@H](OC(C)=O)c1nc(C(=O)N[C@@H](Cc2ccc(N)cc2)C[C@H](C)C(=O)O)cs1)C(C)C` (stereo partly drawn) [Compound 2, (2S,4R)-4-(2-((1R,3R)-1-acetoxy-3-((2S,3S)—N-ethyl-2-(2-ethyl-1-methylpiperidine-2-carboxamido)-3-methylpentanamido)-4-methylpentyl)thiazole-4-carboxamido)-5-(4-aminophenyl)-2-methylpentanoic acid], the IC50 (as a rule, the concentration needed to halve the response being measured) in the assay with DU145 turned out to be 0.5 nM.

`CC[C@H](C)[C@H](NC(=O)[C@@]1(C)CCCCN1C)C(=O)N(CC)[C@H](C[C@@H](OC(C)=O)c1nc(C(=O)N[C@@H](Cc2ccc(N)cc2)C[C@H](C)C(=O)O)cs1)C(C)C` [Compound 3, (2S,4R)-4-(2-((1R,3R)-1-acetoxy-3-((2S,3S)-2-((R)-1,2-dimethylpiperidine-2-carboxamido)-N-ethyl-3-methylpentanamido)-4-methylpentyl)thiazole-4-carboxamido)-5-(4-aminophenyl)-2-methylpentanoic acid] returned an IC50 in the assay on DU145 of 0.2 nM.

Consider `CC[C@H](C)[C@H](NC(=O)[C@H]1CC(C)(C)CCN1C)C(=O)N(C)[C@H](C[C@@H](OC(C)=O)c1nc(C(=O)N[C@@H](Cc2ccccc2)C[C@H](C)C(=O)O)cs1)C(C)C` [Compound 4, (2S,4R)-4-(2-((1R,3R)-1-acetoxy-3-((2S,3S)—N,3-dimethyl-2-((R)-1,4,4-trimethylpiperidine-2-carboxamido)pentanamido)-4-methylpentyl)thiazole-4-carboxamido)-2-methyl-5-phenylpentanoic acid], for which the IC50 stood at 1.3 nM in the assay on DU145, 1.8 nM in the assay with HCT116 and 3.9 nM in the assay on MB231.

`CC[C@H](C)[C@H](NC(=O)[C@H]1C[C@H](C)CCN1C)C(=O)N(C)[C@H](C[C@@H](OC(C)=O)c1nc(C(=O)N[C@@H](Cc2ccccc2)C[C@H](C)C(=O)O)cs1)C(C)C` [Compound 5, (2S,4R)-4-(2-((1R,3R)-1-acetoxy-3-((2S,3S)-2-((2R,4R)-1,4-dimethylpiperidine-2-carboxamido)-N,3-dimethylpentanamido)-4-methylpentyl)thiazole-4-carboxamido)-2-methyl-5-phenylpentanoic acid]: the IC50 with DU145 was determined as 0.9 nM; in the assay on HCT116 it was 0.5 nM; with MB231 it was 3.4 nM.

Take `CC[C@H](C)[C@H](NC(=O)[C@H]1C[C@H](C)CCN1C)C(=O)N(C)[C@H](C[C@@H](OC(C)=O)c1nc(C(=O)N[C@@H](Cc2ccc(N)cc2)C[C@H](C)C(=O)O)cs1)C(C)C` [Compound 6, (2S,4R)-4-(2-((1R,3R)-1-acetoxy-3-((2S,3S)-2-((2R,4R)-1,4-dimethylpiperidine-2-carboxamido)-N,3-dimethylpentanamido)-4-methylpentyl)thiazole-4-carboxamido)-5-(4-aminophenyl)-2-methylpentanoic acid]: the IC50 stood at 4 nM with DU145, 1.9 nM in the assay on HCT116 and 6.6 nM with MB231.

The values above are taken from US9427479B2, “Tubulysin derivatives” (MedImmune LLC, priority 2014, dated 2016).
